According to the supplement of paper PMC12463676, “Small-molecule dissolution of stress granules by redox modulation benefits ALS models” (Nature Chemical Biology, 2025):

Assays:
lipoamide = compound: NC(=O)CCCCC1CCSS1 [lipoamide]; assay: thermal stability z-score vs DMSO; higher = more thermally stabilized by treatment; conditions: HeLa, lipoamide concentration 100 µM
Description: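 Cellular thermal proteome profiling in HeLa cells. Cells were treated with 100 µM lipoamide for 1 h, with or without 1 mM arsenate for a further 1 h, then heated to ten temperatures (37-66.3 °C), and soluble protein was quantified by TMT mass spectrometry relative to 0.1% DMSO controls. The thermal stability score (sum of log2 fold changes minus the abundance score) was transformed to a z-score; mean of n = 3 experiments.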

potassium arsenate = compound: O=[As]([O-])(O)O.[K+] [potassium arsenate]; assay: as above; conditions: HeLa; arsenate concentration 1 mM
Description: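 Cellular thermal proteome profiling in HeLa cells treated with 1 mM arsenate for 1 h (DMSO pretreatment), heated to ten temperatures (37-66.3 °C). Soluble protein was quantified by TMT mass spectrometry relative to DMSO controls; the thermal stability score was transformed to a z-score; mean of n = 3 experiments.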

[1] = arsenate co-treatment: 1 mM arsenate 1 h
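Note: each temperature applied for 3 min, abundance score taken as mean log2 fold change at the two lowest temperatures, z-score obtained by mean subtraction and division by SD.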

Chain of UniProt Q53R41 (Q53R41 whole entry): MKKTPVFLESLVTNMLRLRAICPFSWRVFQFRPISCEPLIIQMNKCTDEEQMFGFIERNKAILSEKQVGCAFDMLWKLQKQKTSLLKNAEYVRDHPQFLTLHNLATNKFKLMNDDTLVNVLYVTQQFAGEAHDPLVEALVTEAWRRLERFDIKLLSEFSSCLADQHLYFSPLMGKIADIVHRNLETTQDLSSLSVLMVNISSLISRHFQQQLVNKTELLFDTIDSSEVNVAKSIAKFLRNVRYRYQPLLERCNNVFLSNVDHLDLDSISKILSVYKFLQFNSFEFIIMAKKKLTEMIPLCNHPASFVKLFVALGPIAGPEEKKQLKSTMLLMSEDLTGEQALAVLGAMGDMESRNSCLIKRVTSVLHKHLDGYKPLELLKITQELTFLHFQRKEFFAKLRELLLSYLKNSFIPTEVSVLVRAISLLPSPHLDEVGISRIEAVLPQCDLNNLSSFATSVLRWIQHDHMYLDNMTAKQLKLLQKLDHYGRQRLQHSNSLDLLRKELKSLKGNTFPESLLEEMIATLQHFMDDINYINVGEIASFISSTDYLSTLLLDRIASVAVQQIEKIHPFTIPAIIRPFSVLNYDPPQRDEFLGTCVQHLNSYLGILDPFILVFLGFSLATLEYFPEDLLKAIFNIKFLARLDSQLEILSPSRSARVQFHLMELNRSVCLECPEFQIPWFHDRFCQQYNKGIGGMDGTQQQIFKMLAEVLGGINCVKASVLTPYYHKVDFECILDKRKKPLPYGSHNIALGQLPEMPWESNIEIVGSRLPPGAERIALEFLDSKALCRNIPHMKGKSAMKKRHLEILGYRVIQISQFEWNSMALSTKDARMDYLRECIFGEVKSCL
Chain of UniProt Q9Y4F1 (Q9Y4F1 whole entry): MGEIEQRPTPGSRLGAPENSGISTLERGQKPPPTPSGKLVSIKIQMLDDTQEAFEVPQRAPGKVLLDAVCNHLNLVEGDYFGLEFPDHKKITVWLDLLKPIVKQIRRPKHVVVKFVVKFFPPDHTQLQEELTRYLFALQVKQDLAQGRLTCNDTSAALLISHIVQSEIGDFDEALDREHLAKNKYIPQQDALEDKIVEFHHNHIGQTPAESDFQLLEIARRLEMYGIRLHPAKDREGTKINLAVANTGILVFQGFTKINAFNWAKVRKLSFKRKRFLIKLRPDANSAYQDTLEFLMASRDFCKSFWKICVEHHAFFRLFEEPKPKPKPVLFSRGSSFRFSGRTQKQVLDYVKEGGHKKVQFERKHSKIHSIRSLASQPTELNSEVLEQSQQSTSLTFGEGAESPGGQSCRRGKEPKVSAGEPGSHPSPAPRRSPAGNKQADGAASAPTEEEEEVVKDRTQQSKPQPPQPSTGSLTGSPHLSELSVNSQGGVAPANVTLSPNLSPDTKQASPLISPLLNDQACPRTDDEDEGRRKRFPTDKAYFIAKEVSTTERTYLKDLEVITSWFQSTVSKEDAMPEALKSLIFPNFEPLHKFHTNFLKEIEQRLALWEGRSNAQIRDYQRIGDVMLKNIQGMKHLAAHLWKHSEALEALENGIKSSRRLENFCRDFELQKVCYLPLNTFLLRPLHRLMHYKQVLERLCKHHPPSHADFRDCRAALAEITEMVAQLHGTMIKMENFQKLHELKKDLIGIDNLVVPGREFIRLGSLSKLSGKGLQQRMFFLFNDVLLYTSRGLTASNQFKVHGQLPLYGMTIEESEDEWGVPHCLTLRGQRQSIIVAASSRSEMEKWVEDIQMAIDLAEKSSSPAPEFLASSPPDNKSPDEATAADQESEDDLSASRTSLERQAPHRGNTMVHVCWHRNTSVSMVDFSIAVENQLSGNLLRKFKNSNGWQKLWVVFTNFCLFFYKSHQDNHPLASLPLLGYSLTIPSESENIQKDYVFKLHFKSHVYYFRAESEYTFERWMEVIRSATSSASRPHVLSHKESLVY
Chain of UniProt O15287 (O15287 whole entry): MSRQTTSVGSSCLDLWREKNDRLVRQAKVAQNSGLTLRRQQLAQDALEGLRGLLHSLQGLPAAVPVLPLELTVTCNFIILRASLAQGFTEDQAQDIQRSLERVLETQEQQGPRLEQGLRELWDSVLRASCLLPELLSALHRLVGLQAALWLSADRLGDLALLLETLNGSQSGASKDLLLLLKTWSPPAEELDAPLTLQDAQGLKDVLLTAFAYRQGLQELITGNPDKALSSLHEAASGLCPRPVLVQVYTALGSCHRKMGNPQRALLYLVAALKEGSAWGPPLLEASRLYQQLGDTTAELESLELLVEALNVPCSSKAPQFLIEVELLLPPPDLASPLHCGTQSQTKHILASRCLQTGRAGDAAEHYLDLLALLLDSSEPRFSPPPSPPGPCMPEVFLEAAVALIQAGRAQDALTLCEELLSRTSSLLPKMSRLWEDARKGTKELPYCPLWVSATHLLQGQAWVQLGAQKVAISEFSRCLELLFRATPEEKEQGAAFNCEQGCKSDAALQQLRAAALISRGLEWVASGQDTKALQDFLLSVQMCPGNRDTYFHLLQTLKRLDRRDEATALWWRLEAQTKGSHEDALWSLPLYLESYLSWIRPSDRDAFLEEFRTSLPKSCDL
Chain of UniProt Q9BRX8 (Q9BRX8 whole entry): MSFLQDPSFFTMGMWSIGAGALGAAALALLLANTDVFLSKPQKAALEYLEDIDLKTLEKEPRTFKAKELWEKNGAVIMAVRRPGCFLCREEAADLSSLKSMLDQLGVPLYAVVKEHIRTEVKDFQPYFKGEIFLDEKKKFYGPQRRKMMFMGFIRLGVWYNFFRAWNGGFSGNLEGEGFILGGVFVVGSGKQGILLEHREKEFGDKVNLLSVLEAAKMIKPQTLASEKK
Chain of UniProt Q8N461 (Q8N461 whole entry): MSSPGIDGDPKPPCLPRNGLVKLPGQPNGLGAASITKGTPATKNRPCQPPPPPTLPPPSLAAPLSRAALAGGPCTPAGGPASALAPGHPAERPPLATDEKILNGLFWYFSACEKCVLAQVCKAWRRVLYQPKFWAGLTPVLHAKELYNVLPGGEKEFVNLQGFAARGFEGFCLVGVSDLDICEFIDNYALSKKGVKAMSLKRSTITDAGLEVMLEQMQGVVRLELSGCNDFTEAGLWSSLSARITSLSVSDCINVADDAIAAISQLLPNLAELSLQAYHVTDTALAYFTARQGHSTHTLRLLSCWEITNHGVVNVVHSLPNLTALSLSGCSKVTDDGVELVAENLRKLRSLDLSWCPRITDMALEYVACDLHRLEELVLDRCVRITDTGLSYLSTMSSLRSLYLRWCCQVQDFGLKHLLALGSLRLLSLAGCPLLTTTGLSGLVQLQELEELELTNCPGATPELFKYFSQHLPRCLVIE
Chain of UniProt Q96EK7 (Q96EK7 whole entry): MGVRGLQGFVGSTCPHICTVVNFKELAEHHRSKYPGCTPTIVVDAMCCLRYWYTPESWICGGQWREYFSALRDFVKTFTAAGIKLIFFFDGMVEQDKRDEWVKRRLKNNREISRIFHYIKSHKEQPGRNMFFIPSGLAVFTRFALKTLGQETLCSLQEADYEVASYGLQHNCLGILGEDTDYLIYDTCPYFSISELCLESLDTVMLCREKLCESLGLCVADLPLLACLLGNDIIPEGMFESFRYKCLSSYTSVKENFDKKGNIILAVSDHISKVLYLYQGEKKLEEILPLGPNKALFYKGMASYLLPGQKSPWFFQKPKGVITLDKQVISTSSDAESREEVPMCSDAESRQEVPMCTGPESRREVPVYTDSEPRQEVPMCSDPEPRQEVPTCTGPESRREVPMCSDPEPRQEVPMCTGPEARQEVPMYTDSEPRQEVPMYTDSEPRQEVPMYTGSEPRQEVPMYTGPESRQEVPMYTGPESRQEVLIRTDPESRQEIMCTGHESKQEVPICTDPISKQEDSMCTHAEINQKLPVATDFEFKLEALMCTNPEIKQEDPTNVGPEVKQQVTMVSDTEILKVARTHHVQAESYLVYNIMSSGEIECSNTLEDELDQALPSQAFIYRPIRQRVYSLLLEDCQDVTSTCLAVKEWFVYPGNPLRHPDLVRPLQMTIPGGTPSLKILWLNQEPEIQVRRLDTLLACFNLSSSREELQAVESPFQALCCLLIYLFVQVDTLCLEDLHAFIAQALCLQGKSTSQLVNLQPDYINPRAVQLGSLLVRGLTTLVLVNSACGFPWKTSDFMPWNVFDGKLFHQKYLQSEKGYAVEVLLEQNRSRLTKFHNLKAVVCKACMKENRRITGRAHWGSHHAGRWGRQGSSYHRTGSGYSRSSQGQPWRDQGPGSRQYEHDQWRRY
Chain of UniProt Q8IW50 (Q8IW50 whole entry): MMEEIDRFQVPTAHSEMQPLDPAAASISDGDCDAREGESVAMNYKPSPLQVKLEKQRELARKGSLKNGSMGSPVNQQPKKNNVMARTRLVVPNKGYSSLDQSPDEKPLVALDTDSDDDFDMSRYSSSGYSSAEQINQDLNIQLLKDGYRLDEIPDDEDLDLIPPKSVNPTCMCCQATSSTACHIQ
Chain of UniProt Q96ME1 (Q96ME1 whole entry): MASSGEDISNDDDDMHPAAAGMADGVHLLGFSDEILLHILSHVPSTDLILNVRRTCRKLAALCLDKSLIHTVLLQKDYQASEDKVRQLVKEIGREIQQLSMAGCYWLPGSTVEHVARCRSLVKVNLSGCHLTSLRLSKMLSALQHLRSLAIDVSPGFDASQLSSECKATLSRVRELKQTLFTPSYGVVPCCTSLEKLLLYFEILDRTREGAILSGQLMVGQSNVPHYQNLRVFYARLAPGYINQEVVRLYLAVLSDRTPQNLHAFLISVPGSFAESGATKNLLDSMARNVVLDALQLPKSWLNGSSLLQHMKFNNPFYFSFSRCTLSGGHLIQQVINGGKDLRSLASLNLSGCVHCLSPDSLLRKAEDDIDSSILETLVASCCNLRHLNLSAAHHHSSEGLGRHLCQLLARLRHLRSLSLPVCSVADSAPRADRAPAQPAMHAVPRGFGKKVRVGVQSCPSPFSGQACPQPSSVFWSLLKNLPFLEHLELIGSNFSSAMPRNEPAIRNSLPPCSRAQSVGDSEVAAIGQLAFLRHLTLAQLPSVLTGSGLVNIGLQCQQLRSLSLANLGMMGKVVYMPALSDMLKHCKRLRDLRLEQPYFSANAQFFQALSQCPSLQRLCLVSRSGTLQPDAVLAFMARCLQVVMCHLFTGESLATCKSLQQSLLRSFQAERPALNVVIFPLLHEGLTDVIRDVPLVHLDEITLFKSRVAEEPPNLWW

Target	thermal stability z-score (lipoamide; [1])	thermal stability z-score (lipoamide; arsenate co-treatment: none)	thermal stability z-score (potassium arsenate)
FAM120B (UniProt Q96EK7)	0.0177	-0.0542	-0.081
FAM120C (UniProt Q9NX05)	-0.0604	-0.0122	-0.296
FAM122B (UniProt Q7Z309)	-0.0455	-0.144	-0.217
FAM129A (UniProt Q9BZQ8)	-0.167	-0.0302	0.444
FAM129B (UniProt Q96TA1)	0.659	0.517	-1.01
FAM134A (UniProt Q8NC44)	0.119	-0.141	-0.162
FAM134C (UniProt Q86VR2)	0.622	-0.494	1.35
FAM136A (UniProt Q96C01)	1.12	0.665	-1.98
FAM160B1 (UniProt Q5W0V3)	-0.512	-0.179	-1.49
FAM162A (UniProt Q96A26)	0.884	0.302	-0.244
FAM172A (UniProt Q8WUF8)	0.954	0.472	0.275
FAM173A (UniProt Q9BQD7)	-0.403	-0.6	-0.445
FAM173B (UniProt Q6P4H8)	-0.478	1.31	-0.0461
FAM174A (UniProt Q8TBP5)	0.351	0.647	1.14
FAM175B (UniProt Q15018)	0.515	0.293	-0.57
FAM177A1 (UniProt Q8N128)	-0.313	-0.584	1.04
FAM188A (UniProt Q9H8M7)	0.53	0.885	1.07
FAM192A (UniProt Q9GZU8)	-0.00729	0.455	-0.58
FAM195A (UniProt Q9BUT9)	0.00727	0.202	-0.164
FAM206A (UniProt Q9NX38)	-0.0394	-0.233	0.249
FAM207A (UniProt Q9NSI2)	0.062	0.578	0.566
FAM210A (UniProt Q96ND0)	-0.412	-0.508	-0.189
FAM213A (UniProt Q9BRX8)	-0.192	-0.476	-0.29
FAM219A (UniProt Q8IW50)	-1.69	2.4	-9.1
FAM234A (UniProt Q9H0X4)	-0.353	-0.499	-0.743
FAM234B (UniProt A2RU67)	-0.257	-0.241	-0.192
FANCA (UniProt O15360)	-0.0907	-0.00129	-0.103

Target	thermal stability z-score (lipoamide; [1])	thermal stability z-score (lipoamide; arsenate co-treatment: none)	thermal stability z-score (potassium arsenate)
FANCB (UniProt Q8NB91)	-0.147	-0.547	-1.04
FANCD2 (UniProt Q9BXW9)	-0.812	-0.0726	-0.953
FANCG (UniProt O15287)	-0.348	-0.437	-0.507
FANCI (UniProt Q9NVI1)	-0.722	-0.439	-1.2
FAR1 (UniProt Q8WVX9)	-0.177	-0.0751	0.544
FARP1 (UniProt Q9Y4F1)	-0.118	-1.38	-2.23
FARP2 (UniProt O94887)	-0.32	-0.266	-0.235
FARS2 (UniProt O95363)	-0.386	-0.359	-0.701
FARSA (UniProt Q9Y285)	-1.41	-0.546	0.0543
FARSB (UniProt Q9NSD9)	0.262	-0.0911	0.893
FAS (UniProt P25445)	0.392	0.673	0.539
FASN (UniProt P49327)	0.217	0.252	-1.1
FASTKD1 (UniProt Q53R41)	-0.195	-0.378	-0.324
FASTKD2 (UniProt Q9NYY8)	-0.22	0.158	0.445
FASTKD3 (UniProt Q14CZ7)	-0.0188	-0.107	-0.00397
FASTKD5 (UniProt Q7L8L6)	-1.07	0.633	0.437
FAT1 (UniProt Q14517)	-1.6	-1.48	0.0899
FAU (UniProt P62861)	1.7	1.21	1.15
FBL (UniProt P22087)	0.277	-0.112	0.723
FBLN1 (UniProt P23142)	-2.93	-2.25	1.29
FBN1 (UniProt P35555)	-2.81	-2.71	0.276
FBXL12 (UniProt Q9NXK8)	-0.195	0.0639	-0.29
FBXL16 (UniProt Q8N461)	-0.137	0.0698	-0.0763
FBXL17 (UniProt Q9UF56)	0.0273	-0.0196	-0.139
FBXL18 (UniProt Q96ME1)	0.241	0.119	-0.711
FBXL20 (UniProt Q96IG2)	-1.2	-1.06	-0.992
FBXO2 (UniProt Q9UK22)	-0.743	0.137	0.0529
